PubChem BioAssay (NCI)
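Compound exposure: 48 hours, 5 concentrations, 96-well plates. The concentration for 50% growth inhibition is given as GI50. TGI marks complete inhibition of growth.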

Columns and labels:
Test in all cases: NCI tumour cell line growth inhibition, 48 h
[1] = system: 786-0 renal
[2] = system: A498 renal
[3] = system: A549 NSCLC
[4] = system: ACHN renal
[5] = system: BT-549 breast
[6] = system: CAKI-1 renal
[7] = system: CCRF-CEM leukemia
[8] = system: COLO 205 colon
[9] = system: DU-145 prostate
[10] = system: EKVX NSCLC
[11] = system: HCC-2998 colon
[12] = system: HCT-116 colon
[13] = system: HCT-15 colon
[14] = system: HL-60(TB) leukemia
[15] = system: HOP-62 NSCLC
[16] = system: HS 578T breast
[17] = system: HT29 colon
[18] = system: IGROV1 ovarian
[19] = system: K-562 leukemia
[20] = system: KM12 colon
[21] = system: LOX IMVI melanoma
[22] = system: M14 melanoma
[23] = system: MALME-3M melanoma
[24] = system: MCF7 breast
[25] = system: MDA-MB-231 breast
[26] = system: MDA-MB-435
[27] = system: MOLT-4 leukemia
[28] = system: NCI-H226 lung
[29] = system: NCI-H23 lung
[30] = system: NCI-H460 lung
[31] = system: NCI-H522 lung
[32] = system: NCI/ADR-RES ovarian
[33] = system: OVCAR-3 ovarian
[34] = system: OVCAR-4 ovarian
[35] = system: OVCAR-5 ovarian
[36] = system: OVCAR-8 ovarian
[37] = system: PC-3 prostate
[38] = system: RPMI-8226 leukemia
[39] = system: RXF 393 renal
[40] = system: SF-268 CNS
[41] = system: SF-295 CNS
[42] = system: SF-539 CNS
[43] = system: SK-MEL-28 melanoma
[44] = system: SK-MEL-5 melanoma
[45] = system: SK-OV-3 ovarian
[46] = system: SN12C renal
[47] = system: SNB-19 CNS
[48] = system: SNB-75 CNS
[49] = system: SR leukemia
[50] = system: SW-620 colon
[51] = system: T-47D breast
[52] = system: TK-10 renal
[53] = system: U251 CNS
[54] = system: UACC-257 melanoma
[55] = system: UACC-62 melanoma
[56] = system: UO-31 renal

CCCCCCCCCC(CCCC(O)CC(=O)O)OC1OC(COC2OC(C)C(O)C(O)C2O)C(O)C(O)C1OC1OC(CO)C(O)C(O)C1OC1OC(C)C(OC(=O)CC(C)C)C(O)C1O (configuration not stated) was tested, and the GI50 [1] was greater than 60 µM, the TGI [1] was greater than 60 µM and the GI50 [2] was 0.459 µM. The TGI [2] was 34.5 µM, the GI50 [3] was greater than 60 µM and the TGI [3] was greater than 60 µM. For the same compound, the GI50 [4] was greater than 60 µM, the TGI [4] was greater than 60 µM and the GI50 [5] was greater than 60 µM. It also gave a TGI [5] greater than 60 µM, a GI50 [6] greater than 60 µM and a TGI [6] greater than 60 µM. For the same compound, the GI50 [7] was greater than 60 µM, the TGI [7] was greater than 60 µM and the GI50 [8] was greater than 60 µM. The TGI [8] was greater than 60 µM, the GI50 [9] was greater than 60 µM and the TGI [9] was greater than 60 µM. For the same compound, the GI50 [10] was greater than 60 µM, the TGI [10] was greater than 60 µM and the GI50 [11] was greater than 60 µM. It also gave a TGI [11] greater than 60 µM, a GI50 [12] greater than 60 µM and a TGI [12] greater than 60 µM. The GI50 [13] was greater than 60 µM, the TGI [13] was greater than 60 µM and the GI50 [14] was greater than 60 µM. The TGI [14] was greater than 60 µM, the GI50 [15] was greater than 60 µM and the TGI [15] was greater than 60 µM. It also gave a GI50 [16] greater than 60 µM, a TGI [16] greater than 60 µM and a GI50 [17] greater than 60 µM. It also gave a TGI [17] greater than 60 µM, a GI50 [18] greater than 60 µM and a TGI [18] greater than 60 µM. The GI50 [19] was greater than 60 µM, the TGI [19] was greater than 60 µM and the GI50 [20] was greater than 60 µM. The TGI [20] was greater than 60 µM, the GI50 [21] was greater than 60 µM and the TGI [21] was greater than 60 µM. The GI50 [22] was greater than 60 µM, the TGI [22] was greater than 60 µM and the GI50 [23] was greater than 60 µM. For the same compound, the TGI [23] was greater than 60 µM, the GI50 [24] was greater than 60 µM and the TGI [24] was greater than 60 µM. The GI50 [25] was greater than 60 µM, the TGI [25] was greater than 60 µM and the GI50 [26] was greater than 60 µM. It also gave a TGI [26] greater than 60 µM, a GI50 [27] greater than 60 µM and a TGI [27] greater than 60 µM. For the same compound, the GI50 [28] was greater than 60 µM, the TGI [28] was greater than 60 µM and the GI50 [29] was greater than 60 µM. The TGI [29] was greater than 60 µM, the GI50 [30] was greater than 60 µM and the TGI [30] was greater than 60 µM. For the same compound, the GI50 [31] was greater than 60 µM, the TGI [31] was greater than 60 µM and the GI50 [32] was greater than 60 µM. It also gave a TGI [32] greater than 60 µM, a GI50 [33] greater than 60 µM and a TGI [33] greater than 60 µM. It also gave a GI50 [34] greater than 60 µM, a TGI [34] greater than 60 µM and a GI50 [35] greater than 60 µM. The TGI [35] was greater than 60 µM, the GI50 [36] was greater than 60 µM and the TGI [36] was greater than 60 µM. It also gave a GI50 [37] greater than 60 µM, a TGI [37] greater than 60 µM and a GI50 [38] greater than 60 µM. The TGI [38] was greater than 60 µM, the GI50 [39] was greater than 60 µM and the TGI [39] was greater than 60 µM. It also gave a GI50 [40] greater than 60 µM, a TGI [40] greater than 60 µM and a GI50 [41] greater than 60 µM. For the same compound, the TGI [41] was greater than 60 µM, the GI50 [42] was greater than 60 µM and the TGI [42] was greater than 60 µM. The GI50 [43] was greater than 60 µM, the TGI [43] was greater than 60 µM and the GI50 [44] was greater than 60 µM. The TGI [44] was greater than 60 µM, the GI50 [45] was greater than 60 µM and the TGI [45] was greater than 60 µM. It also gave a GI50 [46] greater than 60 µM, a TGI [46] greater than 60 µM and a GI50 [47] greater than 60 µM. It also gave a TGI [47] greater than 60 µM, a GI50 [48] greater than 60 µM and a TGI [48] greater than 60 µM. The GI50 [49] was greater than 60 µM, the TGI [49] was greater than 60 µM and the GI50 [50] was greater than 60 µM. The TGI [50] was greater than 60 µM, the GI50 [51] was greater than 60 µM and the TGI [51] was greater than 60 µM. For the same compound, the GI50 [52] was greater than 60 µM, the TGI [52] was greater than 60 µM and the GI50 [53] was greater than 60 µM. It also gave a TGI [53] greater than 60 µM, a GI50 [54] greater than 60 µM and a TGI [54] greater than 60 µM. It also gave a GI50 [55] greater than 60 µM, a TGI [55] greater than 60 µM and a GI50 [56] greater than 60 µM. For the same compound, the TGI [56] was greater than 60 µM.
